Assay results taken from patent US9980948B2, “Azaindole derivative having AMPK-activating activity” (Shionogi & Co., Ltd., priority 2014, dated 2018).
Like-named read-outs stand apart in the source and are kept apart here.

Target: T1, Human AMPK α2β2γ1 (Homo sapiens, UniProt O43741+P54646)
T1 construct: The full length cDNAs of human AMPK β2 (NM_005399.3) and human AMPK α2 (NM_006252.3); The full length cDNAs of human AMPK β2 (NM_005399.3); the full length cDNA of human AMPK γ1 (NM_002733.3) had been inserted into pET28b(+); 6xHis (N); made in house; host or cells: Escherichia coli BL21 CodonPlus (DE3)-RTL (AMPK); BL21 Star (DE3) (CaMKKβ)
T1 sequence (P54646 whole entry): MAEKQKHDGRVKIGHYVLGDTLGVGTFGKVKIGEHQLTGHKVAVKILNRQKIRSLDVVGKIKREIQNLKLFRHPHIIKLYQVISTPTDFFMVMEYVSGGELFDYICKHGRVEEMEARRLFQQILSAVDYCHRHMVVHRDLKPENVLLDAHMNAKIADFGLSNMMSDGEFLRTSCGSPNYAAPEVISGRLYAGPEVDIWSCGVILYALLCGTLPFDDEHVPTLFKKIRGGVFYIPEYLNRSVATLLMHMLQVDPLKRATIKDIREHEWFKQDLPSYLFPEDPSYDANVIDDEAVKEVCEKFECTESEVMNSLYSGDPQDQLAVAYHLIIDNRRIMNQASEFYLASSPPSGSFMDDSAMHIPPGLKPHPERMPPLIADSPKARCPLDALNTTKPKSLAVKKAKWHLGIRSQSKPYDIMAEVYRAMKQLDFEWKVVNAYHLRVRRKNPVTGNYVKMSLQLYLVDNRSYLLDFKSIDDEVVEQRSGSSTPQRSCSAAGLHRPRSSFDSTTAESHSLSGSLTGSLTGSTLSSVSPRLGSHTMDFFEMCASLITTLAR
T1 sequence (O43741 whole entry): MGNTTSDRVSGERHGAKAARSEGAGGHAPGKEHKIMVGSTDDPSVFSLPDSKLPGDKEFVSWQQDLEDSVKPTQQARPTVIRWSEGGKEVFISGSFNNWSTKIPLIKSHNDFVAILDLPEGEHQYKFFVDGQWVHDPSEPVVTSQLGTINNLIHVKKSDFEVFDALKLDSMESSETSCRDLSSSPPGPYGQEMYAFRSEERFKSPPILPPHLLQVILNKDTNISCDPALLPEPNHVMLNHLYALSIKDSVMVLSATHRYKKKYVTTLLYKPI
T1 sequence (P54619 whole entry partner): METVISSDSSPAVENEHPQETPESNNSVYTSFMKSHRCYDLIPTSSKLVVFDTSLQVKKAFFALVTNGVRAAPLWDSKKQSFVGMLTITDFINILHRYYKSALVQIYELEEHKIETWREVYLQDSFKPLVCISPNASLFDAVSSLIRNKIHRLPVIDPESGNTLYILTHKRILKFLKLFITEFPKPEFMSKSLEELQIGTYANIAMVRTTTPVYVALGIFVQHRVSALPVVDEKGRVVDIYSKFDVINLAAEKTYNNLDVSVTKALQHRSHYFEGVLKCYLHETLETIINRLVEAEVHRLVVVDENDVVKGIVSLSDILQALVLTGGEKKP
Assay: Test Example 2: evaluation of an activator for AMP-activated protein kinase (AMPK), human AMPK α2β2γ1 phosphorylated with CaMKK2, FL-Peptide 7 mobility shift
Assay type: biochemical
Conditions: for Emax: read-out: Emax (maximum rate of increase in activity within the measurement range)
Description: The full length cDNAs of human AMPK β2 (NM_005399.3) and human AMPK α2 (NM_006252.3) were inserted into the MCS1 and MCS2 of the pETDuet-1 vector to prepare a human AMPK β2 and human AMPK α2 (6× His tag at the 5′ terminus) expressing plasmid. The plasmid was cotransfected with an expression plasmid, in which the full length cDNA of human AMPK γ1 (NM_002733.3) had been inserted into pET28b(+), into BL21 CodonPlus (DE3)-RTL to obtain an expression strain. The expression strain was cultured in TB medium, followed by induction with 0.5 mM IPTG, and cultured at 25° C. for 3 hours and then harvested.
An expression vector, in which the full length cDNA of human CAMKK β (NM_172226.1) had been inserted into pGEX-6P-3, was transfected into BL21 Star (DE3). The expression strain was cultured in TB medium, followed by induction with 0.5 mM IPTG, and cultured at 25° C. for 3 hours and then harvested.
Thus, phosphorylation treatment was carried out as pretreatment.
Human AMPK α2β2γ1 in an amount to give a conversion rate of approximately 10% by reaction for 2 hours, and CaMKK2 in an amount capable of sufficiently imparting activity to AMPK for one hour were mixed in a buffer solution consisting of a 50 mM HEPES-NaOH buffer solution (pH 7.0), 100 mM NaCl, 5 mM magnesium chloride, 0.1% bovine serum albumin, 0.2 mM sodium orthovanadate(V), 1 mM ethylene glycol-bis(2-aminoethyl ether)-N,N,N′,N′-tetraacetic acid (EGTA), 5 mM disodium β-glycerophosphate, 1 mM dithiothreitol and 0.2 mM ATP, and the obtained liquid was left to stand at 25° C. for 1 to 1.5 hours to sufficiently phosphorylate AMPK.
The obtained liquid was left to stand for 10 minutes.
The obtained liquid was allowed to react at 25° C. for 2 hours, and 10 μl of 20 mM EDTA was then added thereto to stop the reaction.
To detect phosphorylated fluorescent substrates, the reaction liquid was applied to a measuring device, LabChip EZ Reader II manufactured by Caliper Life Science, Inc., for detecting fluorescence by using differences in mobility due to differences in charge. The setting conditions for the device were pressure, −1.5 PSI; upstream voltage, −2250 V; downstream voltage, −400 V; post sample buffer sip time, 40 seconds; final delay, 120 seconds; and peak order, Product First.
A conversion rate was calculated from the peak heights of the resulting substrate and product. The conversion rate when not containing a compound was used as a control, and a concentration dependent curve was made by plotting the rate of increase in activity to the control at each concentration of a compound.

[1] = human AMPK α2β2γ1, 0.2 mM ATP final, 25° C., 2 hours
[2] = human AMPK α2β2γ1, relative to control (100%)

Row | Structure (SMILES) | EC150 (compound concentration showing 150% relative to the control (100%)) [1] | Emax [2] | Emax (maximum rate of increase in activity within the measurement range) [2] | EC150 (compound concentration showing 150% relative to the control (100%)) | Emax (maximum rate of increase in activity within the measurement range)
1 | CC(C)(C(=O)O)[C@H]1CC[C@H](Oc2cc3nc(-c4ccc(N5CC[C@@H](O)C5)cc4)c(Cl)cc3[nH]2)CC1 [Compound I-1-43] | 98 nM | 302% |  |  | 
2 | O[C@@H]1CO[C@H]2[C@@H]1OC[C@H]2Oc1[nH]c2cc(F)c(-c3ccc(C4=CCOCC4)cc3)nc2c1Cl [Compound I-1-45] | 13 nM | 718% |  |  | 
3 | O=C(CO)N1CC=C(c2ccc(-c3nc4cc(O[C@@H]5CO[C@H]6[C@@H]5OC[C@H]6O)[nH]c4cc3F)cc2)CC1 [Compound I-1-50] | 2.4 nM | 827% |  |  | 
4 | O=C(O)C1CC=C(c2ccc(-c3nc4c(Cl)c(O[C@@H]5CO[C@H](CO)C5)[nH]c4cc3Cl)cc2)CC1 (stereo partly drawn) [Compound I-1-55] | 54 nM | 689% |  |  | 
5 | N#Cc1c(O[C@@H]2CO[C@H]3[C@@H]2OC[C@H]3O)[nH]c2cc(Cl)c(-c3ccc(-c4ccc(-n5cncn5)cc4)cc3)nc12 [Compound I-1-58] | 3.8 nM | 836% |  |  | 
6 | O[C@@H]1CO[C@H]2[C@@H]1OC[C@H]2Oc1[nH]c2cc(Cl)c(-c3ccc(C4(O)CCC4)cc3)nc2c1Cl [Compound I-1-62] | 5.7 nM | 851% |  |  | 
7 | C/C(=C\CNC(=O)CO)c1ccc(-c2nc3c(Cl)c(O[C@@H]4CO[C@H]5[C@@H]4OC[C@H]5O)[nH]c3cc2Cl)cc1 [Compound I-1-63] | 6.3 nM | 791% |  |  | 
8 | O[C@@H]1CO[C@H]2[C@@H]1OC[C@H]2Oc1cc2nc(-c3ccc(N4CCOCC4)cc3)c(C(F)(F)F)cc2[nH]1 [Compound I-2-2] | 38 nM |  | 511% |  | 
9 | O[C@@H]1CO[C@H]2[C@@H]1OC[C@H]2Oc1cc2nc(-c3ccc(N4CCOCC4)cc3)c(Cl)c(F)c2[nH]1 [Compound I-2-3] | 6.9 nM | 508% |  |  | 
10 | N#Cc1c(Cl)c(-c2ccc(N3CCOCC3)cc2)nc2cc(O[C@@H]3CO[C@H]4[C@@H]3OC[C@H]4O)[nH]c12 [Compound I-2-7] |  |  |  | 36 nM | 322%
11 | O[C@@H]1CO[C@H]2[C@@H]1OC[C@H]2Oc1[nH]c2cc(Cl)c(-c3ccc(N4CCOCC4)cc3)nc2c1F [Compound I-2-8] | 8.9 nM |  | 447% |  | 
12 | O[C@@H]1CO[C@H]2[C@@H]1OC[C@H]2Oc1[nH]c2cc(Cl)c(-c3ccc(N4CCOCC4)cc3)nc2c1Br [Compound I-2-9] | 66 nM |  | 395% |  | 
13 | O[C@@H]1CO[C@H]2[C@@H]1OC[C@H]2Oc1[nH]c2cc(C(F)(F)F)c(-c3ccc(N4CCOCC4)cc3)nc2c1F [Compound I-2-10] | 49 nM |  | 506% |  | 
14 | Cn1cc(-c2ccc(-c3nc4c(C#N)c(O[C@@H]5CO[C@H]6[C@@H]5OC[C@H]6O)[nH]c4cc3Cl)cc2)cn1 [Compound I-2-11] | 40 nM | 867% |  |  | 
15 | N#Cc1cc2[nH]c(O[C@@H]3CO[C@H]4[C@@H]3OC[C@H]4O)cc2nc1-c1ccc(C2=CCOCC2)cc1 [Compound I-2-19] | 1.6 nM | 916% |  |  | 
16 | Cn1ccc2cc(-c3nc4c(C#N)c(O[C@@H]5CO[C@H]6[C@@H]5OC[C@H]6O)[nH]c4cc3Cl)ccc21 [Compound I-2-28] | 57 nM | 446% |  |  | 
17 | O=C(CO)N1CC=C(c2ccc(-c3nc4cc(O[C@@H]5CO[C@H](CO)C5)[nH]c4cc3F)cc2)CC1 [Compound I-2-33] | 2.5 nM | 511% |  |  | 

Row | Structure (SMILES) | EC150 (compound concentration showing 150% relative to the control (100%)) [1] | Emax [2] | Emax (maximum rate of increase in activity within the measurement range) [2] | EC150 (compound concentration showing 150% relative to the control (100%)) | Emax (maximum rate of increase in activity within the measurement range)
18 | O[C@@H]1CO[C@H]2[C@@H]1OC[C@H]2Oc1cc2nc(-c3ccc(C4(O)CCC4)cc3)c(F)cc2[nH]1 [Compound I-2-34] | 20 nM | 495% |  |  | 
19 | N#Cc1cc2[nH]c(O[C@@H]3CO[C@H]4[C@@H]3OC[C@H]4O)cc2nc1-c1ccc(N2CCOCC2)cc1F [Compound I-2-42] | 48 nM | 481% |  |  | 
20 | N#Cc1cc2[nH]c(O[C@@H]3CO[C@H]4[C@@H]3OC[C@H]4O)cc2nc1-c1ccc(-c2ccccc2)cc1 [Compound I-2-45] | 19 nM | 492% |  |  | 
21 | N#Cc1c(O[C@@H]2CO[C@H]3[C@@H]2OC[C@H]3O)[nH]c2cc(Cl)c(-c3ccc(-c4cnn(CCO)c4)cc3)nc12 [Compound I-2-46] | 77 nM | 510% |  |  | 
22 | O[C@@H]1CO[C@H]2[C@@H]1OC[C@H]2Oc1cc2nc(-c3ccc(C4CCCCO4)cc3)c(F)cc2[nH]1 (stereo partly drawn) [Compound I-2-57] | 10 nM | 484% |  |  | 
23 | O[C@@H]1CO[C@H]2[C@@H]1OC[C@H]2Oc1cc2nc(-c3ccc([C@@H]4C[C@@H](O)[C@@H](O)CO4)cc3)c(Cl)cc2[nH]1 [Compound I-2-61-a] | 6.4 nM | 442% |  |  | 
24 | O[C@@H]1CO[C@H]2[C@@H]1OC[C@H]2Oc1cc2nc(-c3ccc([C@H]4C[C@H](O)[C@H](O)CO4)cc3)c(F)cc2[nH]1 [Compound I-2-61-b] | 6.4 nM | 442% |  |  | 
25 | O[C@@H]1CO[C@H]2[C@@H]1OC[C@H]2Oc1cc2nc(-c3ccc(C4CCCO4)cc3)c(F)cc2[nH]1 (stereo partly drawn) [Compound I-2-68] | 26 nM | 382% |  |  | 
26 | Cn1ncc2cc(-c3nc4cc(O[C@@H]5CO[C@H]6[C@@H]5OC[C@H]6O)[nH]c4cc3F)ccc21 [Compound I-2-69] | 58 nM | 521% |  |  | 
27 | Cn1c(-c2nc3cc(O[C@@H]4CO[C@H]5[C@@H]4OC[C@H]5O)[nH]c3cc2F)cc2ccccc21 [Compound I-2-70] | 38 nM | 511% |  |  | 
28 | COc1ccc(-c2nc3cc(O[C@@H]4CO[C@H]5[C@@H]4OC[C@H]5O)[nH]c3cc2F)cc1 [Compound I-2-71] | 89 nM | 446% |  |  | 
29 | COc1nc(N2CC[C@@H](O)C2)ccc1-c1nc2cc(O[C@@H]3CO[C@H]4[C@@H]3OC[C@H]4O)[nH]c2cc1F [Compound I-2-78] | 7.1 nM | 490% |  |  | 
30 | CS(=O)(=O)N1C2C=C(c3ccc(-c4nc5cc(O[C@@H]6CO[C@H]7[C@@H]6OC[C@H]7O)[nH]c5cc4F)cc3)CC1CC2 (stereo partly drawn) [Compound I-3-4] | 30 nM |  | 568% |  | 
31 | O[C@@H]1CO[C@H]2[C@@H]1OC[C@H]2Oc1cc2nc(-c3ccc(OCCCN4CCOCC4)cc3)c(F)cc2[nH]1 [Compound I-3-6] | 74 nM | 475% |  |  | 
32 | CC(=O)Nc1nc(-c2ccc(-c3nc4cc(O[C@@H]5CO[C@H]6[C@@H]5OC[C@H]6O)[nH]c4cc3F)cc2)cs1 [Compound I-3-10] | 7.9 nM | 391% |  |  | 
33 | CS(C)(=O)=Nc1ccc(-c2ccc(-c3nc4cc(O[C@@H]5CO[C@H]6[C@@H]5OC[C@H]6O)[nH]c4cc3F)cc2)nc1 [Compound I-3-12] | 4.2 nM | 396% |  |  | 
